# In patent US6423731B1, “Indole derivatives as prodrugs of 5-HT1-like receptor agonists” (Zeneca Limited, priority 1994, dated 2002):
# Experiments:
# [1] = Plasma concentrations in rats after intravenous administration; type: in vivo, rat
# Protocol: (§1) Investigations were carried out in rats to determine whether 4-[1-Acetyl-3-[2-(dimethylamino)ethyl]indol-5-ylmethyl]oxazolidin-2-one acetate (compound of Example 6) acts as a prodrug for the pharmacologically active compound 4-[3-[2-(dimethylamino)ethyl]-1H-indol-5-ylmethyl]-2-oxazolidinone described in EP-A-0486666. The compound of Example 6 was incubated with rat plasma at a concentration of approx. 0.2 μg/ml for up to 4 h. At selected times the incubations were terminated by addition of acetone and the concentrations of both 4-[1-Acetyl-3-[2-(dimethylamino)ethyl]indol-5-ylmethyl]oxazolidin-2-one acetate and its breakdown product 4-[3-[2-(dimethylamino)ethyl]-1H-indol-5-ylmethyl]-2-oxazolidinone were determined by HPLC assay. In addition rats were administered 4-[1-Acetyl-3-[2-(dimethylamino)ethyl]indol-5-ylmethyl]oxazolidin-2-one acetate intravenously at a dose of 4 mg/kg and the plasma and brain concentrations of this compound and the breakdown product, 4-[3-[2-(Dimethylamino)ethyl]-1H-indol-5-ylmethyl]- 2-oxazolidinone were determined up to 8 h after administration.
# After intravenous administration, the peak plasma concentration (Cmax) of 4-[1-acetyl-3-[2-(dimethylamino)ethyl]indol-5-ylmethyl]oxazolidin-2-one acetate was approx 0.2 μg/ml (5 min) and this parent compound was detectable up to 1 h post dose (limit of detection 0.02 μg/ml); the plasma half-life was approximately 0.2 h. The breakdown product, 4-[3-[2-(dimethylamino) ethyl]-1H-indol-5-ylmethyl]-2-oxazolidinone was also detected in the plasma (Cmax 0.3 μg/ml, 5 min) up to 4 h after dosage.
# [2] = Diffusion through a lipoidal membrane barrier (trans-cellular absorption); type: physicochemical; conditions: laceryl alcohol/caprytic acid lipid membrane
# Protocol: The diffusion rates of the Compound of Example 3 and the active compound, 4-[3-[2-dimethylamino)ethyl]-1H-indol-5-ylmethyl]-2-oxazolidinone, through a lipoidal membrane barrier (laceryl alcohol/caprytic acid lipid membrane) were determined and compared.
# [3] = Incubation with rat hepatocytes (conversion to active compound); type: in vitro ADME
# Protocol: The compound of Example 3 was incubated with rat hepalocytes to determine whether the active compound, 4-[3-[2-(dimethylamino)ethyl]-1H-indol-5-ylmethyl]-2-oxazolidinone, is a main product of its metabolism.
# [4] = Incubation of compound with rat plasma, HPLC assay of parent and breakdown product; type: in vitro ADME
# Protocol: as §1
# 4-[1-Acetyl-3-[2-(dimethylamino)ethyl]indol-5-ylmethyl]oxazolidin-2-one acetate was converted to 4-[3-[2-(Dimethylamino)ethyl]-1H-indol-5-ylmethyl]-2-oxazolidinone in rat plasma, with a half-life of approximately 3 h. After 4 h incubation only 30% of the parent compound of example 6 remained.
SMILES,"breakdown product detected in plasma up to, after dosage ([1]; rat, in vivo, iv, 4 mg/kg)",Diffusion Rate [2] [cm/min/1000],conversion into the active compound [3],compound remaining ([3]; after 30 minutes incubation),melting point [°C],"half-life at 0.2 μg/ml ([4]; rat plasma incubation, approx. 0.2 μg/ml, up to 4 h, read-out: half-life of conversion to 4-[3-[2-(Dimethylamino)ethyl]-1H-indol-5-ylmethyl]-2-oxazolidinone in rat plasma (converted)) [h]","parent compound remaining ([4]; rat plasma, after 4 h incubation) [%]","half-life ([1]; in vivo, rat, intravenous, 4 mg/kg) [h]","Cmax ([1]; in vivo, rat, intravenous, 4 mg/kg, read-out: peak plasma concentration (Cmax) of parent compound) [µg/mL]","parent compound detectable in plasma up to, post dose ([1]; rat, intravenous, 4 mg/kg, limit of detection 0.02 μg/ml)","conversion into active compound in rats ([1]; rats, plasma incubation and intravenous experiments)"
"CN(C)CCc1c[nH]c2ccc(CC3COC(=O)N3)cc12 (stereo not drawn) [Active compound, 4-[3-[2-(dimethylamino)ethyl]-1H-indol-5-ylmethyl]-2-oxazolidinone, reference compound]",up to 4 h,0.68,,,,,,,,,
"CC(=O)O.Cc1ccccc1C(=O)n1cc(CCN(C)C)c2cc(CC3COC(=O)N3)ccc21 (stereo not drawn) [Example 3, 4-[1-(2-toluoyl)-3-[2-(dimethylamino)ethyl]indol-5-ylmethyl]oxazolidin-2-one acetate]",,3.88,extensively and rapidly converted into the active compound,no compound of Example 3 remained,51.5 to 54,,,,,,
"CC(=O)O.CC(=O)n1cc(CCN(C)C)c2cc(CC3COC(=O)N3)ccc21 (stereo not drawn) [Example 6, 4-[1-Acetyl-3-[2-(dimethylamino)ethyl]indol-5-ylmethyl]oxazolidin-2-one acetate]",,,,,,~3,30,~0.2,~0.2,up to 1 h,is converted into 4-[3-[2-(dimethylamino)ethyl]-1H-indol-5-ylmethyl]-2-oxazolidinone in rats
